In experiment [1] the target is T1, undecaprenyl pyrophosphate synthase (UppS) (Escherichia coli, UniProt P60472).
T1 construct: gene ispU; N-terminal His6-tagged UppSEc
T1 sequence (P60472 1-253): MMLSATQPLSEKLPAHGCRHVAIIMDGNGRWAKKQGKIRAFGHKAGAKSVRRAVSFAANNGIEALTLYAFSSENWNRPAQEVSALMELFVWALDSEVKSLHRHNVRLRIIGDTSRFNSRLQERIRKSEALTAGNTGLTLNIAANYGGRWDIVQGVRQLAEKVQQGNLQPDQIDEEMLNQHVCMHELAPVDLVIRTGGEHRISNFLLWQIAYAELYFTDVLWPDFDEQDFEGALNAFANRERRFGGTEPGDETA
Nature of the experiment: biochemical. More on the design: radiolabeled [14C]-IPP UppS assay, TLC quantification of [14C]-UPP; residual activity or IC50. Particulars: read-out: % of control remaining. On the procedure:
The UppS enzymatic activity was determined by using a kinetics-based assay utilizing a radiolabeled substrate. The assay revolves on the measuring of UPP formation in the reaction mixture in a final volume of 40 μL. Stock solutions of all compounds (2 mM) were prepared in DMSO and the final concentration of DMSO in the assay was 5% (v/v). The enzyme was diluted in buffer A to appropriate concentration so that the consumption of the substrate in the assay is no higher than 30%. The reaction mixture consisted of 20 μL of 100 mM HEPES, pH 7.5, 50 mM KCl, 0.5 mM MgCl2, 1.5 μM FPP, 12 μM [^14C]-IPP ([^14C]-IPP; 289 Bq), 2 μL DMSO with or without the inhibitor and 18 μL of optimal enzyme solution. […] Reaction mixture was lyophilized and resuspended in 10 μL of purified water. The radiolabeled substrate, [^14C]-IPP, and the product, [^14C]UPP, were separated on a Silica gel 60 TLC plate using 1-propranol / ammonium hydroxide / water in ratio of 6/3/1 (v/v/v) as a mobile phase (Rf([^14C]–IPP) = 0.21, Rf[^14C]UPP = 0.56), and quantified with a radioactivity scanner (Rita Star, Raytest Isotopenmessgeräte GmbH, Straubenhardt, Germany). Residual activities (RAs) were calculated with respect to a control reaction without the tested compounds and with 5% DMSO. All the experiments were run in duplicate with standard deviations within ± 10%. The IC50 values represented the concentrations for which the RA was 50% and were determined by measuring the RAs at seven different compound concentrations. The 34 purchased compounds were tested for their inhibitory potencies against E. coli UppS using a radioactivity-based assay. In these test conditions, the [^14C]-UPP formation is observed thanks to a radiolabeled substrate ([^14C]-IPP) and quantified with a radioactivity scanner. The results are presented as RAs of UppS in the presence of 100 μM of each compound (Supplementary Table S1). […] Sodium risedronate was used as a positive control to enable the comparison of the purchased compounds to a known inhibitor and to confirm the results of the UppS inhibition assay. […] All three inhibitors are anthranilic acid derivatives with a larger hydrophobic moiety attached to the amide group via different linkers, 2-cyanoacryloyl for compounds 1 and 2 and 2-thioacetyl for compound 3.

For experiment [2], the system named is E. coli. Description: microbe, parasite or virus in culture. More on the design: antibacterial MIC determination on wild-type strains. Particulars: Escherichia coli, read-out: MIC E. coli. On the procedure:
E. coli AcrAB-TolC is a tripartite multidrug efflux pump system that expels compounds form the cell and this represents one of the possible mechanisms of bacterial defence against xenobiotics ([Kim et al., 2015]). […] On the other hand, compound 2 inhibited bacterial growth in both E. coli BW25113 ΔtolC strains with or without permeable membrane (MIC = 0.5 μg/mL). The antibacterial activity in the efflux pump-deficient E. coli BW25113 ΔtolC strain is independent from the presence of polymyxine B. Therefore, it can be postulated on the basis of the evaluation of compound 2, that transport across E. coli cell membrane is possible. This compound therefore represents an interesting starting point for further development, for example computational searches of similar compounds and analog synthesis.

Experiment [3] relates to S. aureus. Description: microbe, parasite or virus in culture. Further details: antibacterial MIC determination on wild-type strains. Particulars: Staphylococcus aureus, read-out: MIC S. aureus.
The target in experiment [4] is T2, undecaprenyl pyrophosphate synthase (UppS) (Escherichia coli, UniProt P60472).
T2 construct: gene ispU; N-terminal His6-tagged UppSEc
Description: radiolabeled […]-IPP assay, TLC quantification of […]-UPP, IC50 from seven concentrations. Format: biochemical.

Among the data in article PMC6339874, “Anthranilic Acid Inhibitors of Undecaprenyl Pyrophosphate Synthase (UppS), an Essential Enzyme for Bacterial Cell Wall Biosynthesis” (Frontiers in Microbiology, 2019) are remaining activity, MIC and IC50 values, retold here.

pIC50: −log10 of the molar value. Converted amounts (≈) assume the structure as drawn.

As to `O=C(O)C1CCCCC1C(=O)Nc1ccc(N2CCN(c3cccc(Cl)c3Cl)CC2)cc1` (stereo not drawn) [S3], the remaining activity at 100 µM in experiment [1] was 96%. The MIC in experiment [2] and in experiment [3] was more than 128 µg/mL throughout.

Consider `COC(=O)C(NC(=O)c1ccccc1C(=O)O)c1ccc(OCc2ccccc2)c(OC)c1` (stereo not drawn) [S33], for which the remaining activity at 100 µM in experiment [1] is 65%. Besides, the MIC in experiment [2] and in experiment [3] was more than 128 µg/mL in each case.

For `O=C(NCCc1ccccc1)c1ccc(NC(=O)c2nccnc2C(=O)O)cc1` [S30], the remaining activity at 100 µM in experiment [1] worked out at 122%. Besides, the MIC in experiment [2] and in experiment [3] was more than 128 µg/mL throughout.

Regarding `O=C(O)c1ccccc1C(=O)Nc1ccc(C(=O)N(c2ccccc2)c2cccc3ccccc23)cc1` [S11], the remaining activity at 100 µM in experiment [1] turned out to be 60%. For the same compound, the MIC in experiment [2] and in experiment [3] was more than 128 µg/mL throughout.

For `O=C(O)c1ccccc1C(=O)Nc1ccc(C(=O)N(c2ccccc2)c2ccc3ccccc3c2)cc1` [S2], the remaining activity at 100 µM in experiment [1] is 58%. The MIC in experiment [2] and in experiment [3] was more than 128 µg/mL throughout.

As for `Cc1sc(NC(=O)c2ccccc2C(=O)O)nc1-c1ccc(-c2ccccc2)cc1` [S12], in experiment [1], the remaining activity at 100 µM amounted to 120%. In addition, the MIC in experiment [2] and in experiment [3] was more than 128 µg/mL each time.

In the case of `O=C(O)c1ccccc1C(=O)NCCC(c1ccc(F)cc1)c1ccco1` (stereo not drawn) [S27], the remaining activity at 100 µM in experiment [1] is 99%. For the same compound, the MIC in experiment [2] and in experiment [3] was more than 128 µg/mL each time.

`O=C(Nc1ccccc1C(=O)O)c1cccc(NC(=O)C(c2ccccc2)c2ccccc2)c1` [S14]: in experiment [1], the remaining activity at 100 µM stood at 101%. Besides, the MIC in experiment [2] was more than 128 µg/mL; in experiment [3], 128 µg/mL (≈ 284 µM).

Regarding `Cc1ccc(OCCNC(=O)C2CC=CCC2C(=O)O)cc1` (stereo not drawn) [S23], the remaining activity at 100 µM in experiment [1] was 117%. Moreover, the MIC in experiment [2] and in experiment [3] was more than 128 µg/mL throughout.

In the case of `O=C(O)CCC(NC(=O)C(=Cc1cn(-c2ccccc2)nc1-c1cccnc1)NC(=O)c1ccccc1)C(=O)O` (stereo not drawn) [S8], the remaining activity at 100 µM in experiment [1] turned out to be 92%. Moreover, the MIC in experiment [2] and in experiment [3] was more than 128 µg/mL each time.

As for `COc1ccc(C(=O)Nc2ccc(N3CCN(c4ccccc4F)CC3)cc2C(=O)O)cc1` [S21], the remaining activity at 100 µM in experiment [1] is 74%. In addition, the MIC in experiment [2] and in experiment [3] was more than 128 µg/mL in each case.

For orientation: pIC50 means −log10 of the IC50, conventionally taken in molar units. Low values mean a large IC50, high ones a small IC50. `O=C(CSc1nnc(-c2cc3ccccc3o2)n1-c1ccccc1)Nc1ccccc1C(=O)O` [compound 3] showed a pIC50 in experiment [4] of 4.62. Besides, the MIC in experiment [2] and in experiment [3] was more than 128 µg/mL in each case.

As for `Cc1cc(C)n(CCCNc2ccc(C(=O)c3ccccc3C(=O)O)cc2[N+](=O)[O-])n1` [S13], in experiment [1], the remaining activity at 100 µM was found to be 92%. Also, the MIC in experiment [2] and in experiment [3] was more than 128 µg/mL throughout.

Take `Cc1ccc(Nc2nccc(Nc3ccc(O)c(C(=O)O)c3)n2)c(C)c1` [S9]: in experiment [1], the remaining activity at 100 µM is 72%. For the same compound, the MIC in experiment [2] and in experiment [3] was more than 128 µg/mL in each case.

For `CCCn1cc(NC(=O)CNS(=O)(=O)c2cccc3c(N(C)C)cccc23)c(C(=O)O)c1` [S7], the remaining activity at 100 µM in experiment [1] worked out at 85%. The MIC in experiment [2] and in experiment [3] was more than 128 µg/mL in each case.

Take `O=C(Cn1cc(-c2ccc(Cl)cc2)ncc1=O)NC(C(=O)O)c1ccccc1` (stereo not drawn) [S29]: in experiment [1], the remaining activity at 100 µM was 96%. Besides, the MIC in experiment [2] and in experiment [3] was more than 128 µg/mL each time.

Take `O=C(CN1CCCC1C(=O)O)NCc1ccc(COc2ccccc2)cc1` (stereo not drawn) [S15]: the remaining activity at 100 µM in experiment [1] was determined as 124%. The MIC in experiment [2] and in experiment [3] was more than 128 µg/mL each time.

`O=C(Cc1ccccc1C(=O)O)Nc1ccn(Cc2ccccc2Cl)n1` [S5]: the remaining activity at 100 µM in experiment [1] is 115%. The MIC in experiment [2] and in experiment [3] was more than 128 µg/mL throughout.

In experiment [4], `N#C/C(=C\c1cn(Cc2cccc3ccccc23)c2ccccc12)C(=O)Nc1ccccc1C(=O)O` [compound 1] showed a pIC50 of 4.35. In addition, the MIC in experiment [2] and in experiment [3] was more than 128 µg/mL each time.

Turning to `O=C(O)C1CC=CCC1C(=O)Nc1ccccc1C(=O)N1CCN(c2ccc(F)cc2)CC1` (stereo not drawn) [S19], the remaining activity at 100 µM in experiment [1] worked out at 99%. Besides, the MIC in experiment [2] and in experiment [3] was more than 128 µg/mL in each case.

On to `O=C(COc1ccccc1)Nc1ccc(N2CCN(c3ccc(Cl)cc3)CC2)cc1C(=O)O` [S25], for which, in experiment [1], the remaining activity at 100 µM was 121%. In addition, the MIC in experiment [2] was more than 128 µg/mL; in experiment [3], 64 µg/mL (≈ 137 µM).

Regarding `O=C(O)c1cccc(C(=O)NCCc2nc3ccccc3n2C(F)F)c1` [S20], the remaining activity at 100 µM in experiment [1] turned out to be 168%. Moreover, the MIC in experiment [2] and in experiment [3] was more than 128 µg/mL throughout.

With `Cc1cccc(N2CCN(c3ccc(NC(=O)C(C)C)c(C(=O)O)c3)CC2)c1` [S31], the remaining activity at 100 µM in experiment [1] is 125%. In addition, the MIC in experiment [2] and in experiment [3] was more than 128 µg/mL in each case.

`O=C(Nc1ccc(COCc2ccccc2)cc1)c1ccnc(C(=O)O)c1` [S22]: the remaining activity at 100 µM in experiment [1] was determined as 93%. Also, the MIC in experiment [2] and in experiment [3] was more than 128 µg/mL each time.

With `N#C/C(=C\c1cccc(OCc2ccc(F)cc2)c1)C(=O)Nc1ccccc1C(=O)O` [compound 2], in experiment [4], the pIC50 is 4.60. The MIC in experiment [2] and in experiment [3] was more than 128 µg/mL in each case.

Take `O=C(O)C1CCCCC1C(=O)Nc1ccc(N2CCN(Cc3ccccc3)CC2)cc1` (stereo not drawn) [S6]: in experiment [1], the remaining activity at 100 µM worked out at 53%. For the same compound, the MIC in experiment [2] and in experiment [3] was more than 128 µg/mL throughout.

`CCCc1ccc(S(=O)(=O)Nc2ccc(N3CCN(C4CCCCC4)CC3)cc2C(=O)O)cc1` [S28]: the remaining activity at 100 µM in experiment [1] is 113%. The MIC in experiment [2] and in experiment [3] was more than 128 µg/mL each time.

For the compound `Cc1ccc(N2CCN(C(=O)c3ccccc3NC(=O)C3CC=CCC3C(=O)O)CC2)cc1` (stereo not drawn) [S16], in experiment [1], the remaining activity at 100 µM came to 104%. In addition, the MIC in experiment [2] and in experiment [3] was more than 128 µg/mL each time.

`CC(=O)c1ccc(NC(=O)C(Sc2ccc(NC(=O)c3ccccc3C(=O)O)cc2)c2ccccc2)cc1` (stereo not drawn) [S4]: the remaining activity at 100 µM in experiment [1] came to 101%. The MIC in experiment [2] and in experiment [3] was more than 128 µg/mL throughout.

Consider `Cc1cccc(C(=O)O)c1NC(=O)COc1ccc(Cl)cc1` [S32], for which, in experiment [1], the remaining activity at 100 µM was 122%. For the same compound, the MIC in experiment [2] and in experiment [3] was more than 128 µg/mL throughout.

For the compound `CCOc1ccc(N(CC(=O)Nc2ccccc2C(=O)O)S(=O)(=O)c2ccc(Cl)cc2)cc1` [S26], the remaining activity at 100 µM in experiment [1] came to 102%. Moreover, the MIC in experiment [2] is more than 128 µg/mL; in experiment [3], 128 µg/mL (≈ 262 µM).

For the compound `Cc1ccc(-n2c(SCC(=O)Nc3ccccc3C(=O)O)nnc2-c2cc3ccccc3o2)cc1` [S18], the remaining activity at 100 µM in experiment [1] worked out at 122%. Further, the MIC in experiment [2] and in experiment [3] was more than 128 µg/mL in each case.

With `CCCCCCCCCCCCN(CP(=O)(O)O)CP(=O)(O)O` [S34], the remaining activity at 100 µM in experiment [1] worked out at 147%. Further, the results for the MIC in experiment [2] and in experiment [3] were more than 128 µg/mL and 128 µg/mL (≈ 343 µM), respectively.
